Source: paper PMC9268414, “Screening an In-House Isoquinoline Alkaloids Library for New Blockers of Voltage-Gated Na^+ Channels Using Voltage Sensor Fluorescent Probes: Hits and Biases” (Molecules, 2022)

What was measured:
[1] = system: NaV channels endogenously expressed in GH3b6 cells; experiment: FRET voltage sensor probe (VSP) assay of BTX-induced depolarization in GH3b6 cells; format: cell-based, rat; settings: for Inhibitory Effects (%) on BTX-induced VSP signal (screening): IA at 10–50 µg/mL co-incubated with 1 µM BTX; for Inhibitory Effects (%) on BTX-induced VSP signal (screening) / Maximum of Inhibition of BTX-evoked VSP signal / IC50: GH3b6 cells; for Maximum of Inhibition of BTX-evoked VSP signal / IC50: BTX 1 µM, n = 6; for Maximum of Inhibition of BTX-evoked VSP signal: % printed only; for IC50: read-out: IC50 (µM), inhibition of BTX-evoked VSP signal
[2] = target: T1, hNaV1.3 channel (Homo sapiens, UniProt Q9NY46); experiment: Automated patch-clamp, Na+ currents in HEK293-hNaV1.3 cells; format: cell-based; settings: 10 µM; for Effect on Na+ currents elicited by hNaV1.3: HEK293-hNaV1.3, without BTX; for Change in V1/2 of activation and inactivation vs control: hNaV1.3
T1 construct: expressed in transfected cells
Protocol: (§1) GH3b6 cells are a subclone of the GH3 pituitary cell line and were a generous gift from Dr. Françoise Macari (IGF, Montpellier, France). GH3b6 cells were cultivated from passage 14 until passage 32 at 37 °C/5% CO2 in Dubelcco’s Modified Eagle Medium (DMEM)/F12 (Lonza, Basel, Switzerland), supplemented with 10% FBS (Lonza, Basel, Switzerland), 1 mM L-glutamine, and 1 mM penicillin and streptomycin solution. For the fluorescence assay, the GH3b6 cells were seeded in black-walled, clear-bottom, 96-well, tissue culture-treated, and sterile imaging plates (Corning Hazebrouck, France), at a density of 10,000 cells per well, and incubated for 24 h before starting the experiment. The human Nav1.3 (hNav1.3) channel-expressing cell line (HEK293) used in this work was a generous gift from Massimo Mantegazza (IPMC, Nice, France). HEK293-hNaV1.3 cells were cultivated from passage 20 until passage 35 at 37 °C/5% CO2 in a DMEM high glucose medium (4.5 g/l), supplemented with 10% FBS, pyruvate, L-glutamine, and penicillin and streptomycin solution, each one at 1 mM, completed with 800 µg/mL geneticin G418. For the fluorescence assays, the cells were plated at a density of 50,000 cells per well in black-walled, clear-bottom, 96-well plates and then cultured at 37 °C and 5% CO2 for 24 h before the experiments. HEK293 stably expressing hNaV1.2 and hNaV1.6 were cultivated in the same conditions mentioned above for the HEK293-hNaV1.3 cells. For the automated patch-clamp experiments, cells were passaged from 24 to 48 h prior to the experiment and replated in the appropriate quantity to reach 50–70% confluence. For electrophysiological recordings, cells were detached with trypsin-EDTA and diluted in a culture medium. Then, the cells were centrifuged at 800 rpm for 4 min and resuspended (~300,000 cells/mL) in a patch-clamp extracellular solution.
(§2) Whole-cell recordings were used to investigate the effects of oxostephanine, liriodenine, thalmiculine, bebeerine, and protopine on HEK293 cells stably expressing the hNav1.2, hNav1.3, and hNav1.6 channels. Automated patch-clamp recordings were performed using the SyncroPatch 384PE from Nanion (München, Germany). Chips with a single hole (n = 384, series resistance 3.93 ± 1.19 MΩ) were used for HEK293 cell recordings. Pulse generation and data collection were performed with the PatchControl384 v1.9.7 software (Nanion) and the Biomek interface (Beckman Coulter). Whole-cell recordings were conducted according to the recommended procedures of Nanion. The cells were stored in a cell hotel reservoir at 10 °C, with a shaking speed of 60 RPM. After initiating the experiment, cell catch, sealing, whole-cell formation, liquid application, recording, and data acquisition were all performed sequentially and automatically. The intracellular solution contained (in mM): 10 CsCl, 110 CsF, 10 NaCl, 10 EGTA, and 10 HEPES (pH 7.2, osmolarity 280 mOsm), and the extracellular solution contained (in mM): 60 NMDG, 80 NaCl, 4 KCl, 2 CaCl2, 1 MgCl2, 5 Glucose, and 10 HEPES (pH 7.4 (NaOH), osmolarity 280 ± 3 mOsm). Whole-cell experiments were performed at a holding potential of −100 mV at room temperature (18–22 °C). Currents were sampled at 20 kHz. For pharmacological assays, alkaloid solutions were prepared at 30 µM in the extracellular solution supplemented with 0.3% bovine serum albumin and distributed in 384-well compound plates according to a pre-established plate plan. This distribution within compound plates could not be randomized since it would then excessively complexify the methods of analyses. The working compound solution was diluted 3 times in the patch-clamp recording well by adding from 30 to 60 µL of the external solution to reach the final reported concentration and the test volume of 90 µL. The effects of IA (10 µM) or of BTX (1 µM) were measured at the end of a 10 min application time. Activation curves were built by depolarizations lasting for 2000 ms, from −130 mV to 40 mV, using 5 mV increment steps. […]

[3] = target: T2, hNaV1.6 channel (Homo sapiens, UniProt Q9UQD0); experiment: Automated patch-clamp, Na+ currents in HEK293-hNaV1.6 cells; format: cell-based; settings: 10 µM; for Effect on Na+ currents elicited by hNaV1.6: HEK293-hNaV1.6; for Change in V1/2 of activation and inactivation vs control: hNaV1.6
T2 construct: expressed in transfected cells
Protocol: as §1, §2

[4] = target: T3, hNaV1.2 channel (Homo sapiens, UniProt Q99250); experiment: Automated patch-clamp, Na+ currents in HEK293-hNaV1.2 cells; format: cell-based; settings: 10 µM; for Effect on Na+ currents elicited by hNaV1.2: HEK293-hNaV1.2; for Change in V1/2 of activation and inactivation vs control: hNaV1.2
T3 construct: expressed in transfected cells
Protocol: as §1, §2

[5] = target: human NaV1.3 channel (Homo sapiens, UniProt Q9NY46); experiment: ANG-2 intracellular Na+ fluorescent assay in HEK293-hNaV1.3 cells; format: cell-based; settings: for Inhibition of BTX-induced [Na+]i elevation (ANG-2 signal): IA at 10 µM, BTX 3 µM, HEK293-hNaV1.3

T2 sequence (Q9UQD0 whole entry): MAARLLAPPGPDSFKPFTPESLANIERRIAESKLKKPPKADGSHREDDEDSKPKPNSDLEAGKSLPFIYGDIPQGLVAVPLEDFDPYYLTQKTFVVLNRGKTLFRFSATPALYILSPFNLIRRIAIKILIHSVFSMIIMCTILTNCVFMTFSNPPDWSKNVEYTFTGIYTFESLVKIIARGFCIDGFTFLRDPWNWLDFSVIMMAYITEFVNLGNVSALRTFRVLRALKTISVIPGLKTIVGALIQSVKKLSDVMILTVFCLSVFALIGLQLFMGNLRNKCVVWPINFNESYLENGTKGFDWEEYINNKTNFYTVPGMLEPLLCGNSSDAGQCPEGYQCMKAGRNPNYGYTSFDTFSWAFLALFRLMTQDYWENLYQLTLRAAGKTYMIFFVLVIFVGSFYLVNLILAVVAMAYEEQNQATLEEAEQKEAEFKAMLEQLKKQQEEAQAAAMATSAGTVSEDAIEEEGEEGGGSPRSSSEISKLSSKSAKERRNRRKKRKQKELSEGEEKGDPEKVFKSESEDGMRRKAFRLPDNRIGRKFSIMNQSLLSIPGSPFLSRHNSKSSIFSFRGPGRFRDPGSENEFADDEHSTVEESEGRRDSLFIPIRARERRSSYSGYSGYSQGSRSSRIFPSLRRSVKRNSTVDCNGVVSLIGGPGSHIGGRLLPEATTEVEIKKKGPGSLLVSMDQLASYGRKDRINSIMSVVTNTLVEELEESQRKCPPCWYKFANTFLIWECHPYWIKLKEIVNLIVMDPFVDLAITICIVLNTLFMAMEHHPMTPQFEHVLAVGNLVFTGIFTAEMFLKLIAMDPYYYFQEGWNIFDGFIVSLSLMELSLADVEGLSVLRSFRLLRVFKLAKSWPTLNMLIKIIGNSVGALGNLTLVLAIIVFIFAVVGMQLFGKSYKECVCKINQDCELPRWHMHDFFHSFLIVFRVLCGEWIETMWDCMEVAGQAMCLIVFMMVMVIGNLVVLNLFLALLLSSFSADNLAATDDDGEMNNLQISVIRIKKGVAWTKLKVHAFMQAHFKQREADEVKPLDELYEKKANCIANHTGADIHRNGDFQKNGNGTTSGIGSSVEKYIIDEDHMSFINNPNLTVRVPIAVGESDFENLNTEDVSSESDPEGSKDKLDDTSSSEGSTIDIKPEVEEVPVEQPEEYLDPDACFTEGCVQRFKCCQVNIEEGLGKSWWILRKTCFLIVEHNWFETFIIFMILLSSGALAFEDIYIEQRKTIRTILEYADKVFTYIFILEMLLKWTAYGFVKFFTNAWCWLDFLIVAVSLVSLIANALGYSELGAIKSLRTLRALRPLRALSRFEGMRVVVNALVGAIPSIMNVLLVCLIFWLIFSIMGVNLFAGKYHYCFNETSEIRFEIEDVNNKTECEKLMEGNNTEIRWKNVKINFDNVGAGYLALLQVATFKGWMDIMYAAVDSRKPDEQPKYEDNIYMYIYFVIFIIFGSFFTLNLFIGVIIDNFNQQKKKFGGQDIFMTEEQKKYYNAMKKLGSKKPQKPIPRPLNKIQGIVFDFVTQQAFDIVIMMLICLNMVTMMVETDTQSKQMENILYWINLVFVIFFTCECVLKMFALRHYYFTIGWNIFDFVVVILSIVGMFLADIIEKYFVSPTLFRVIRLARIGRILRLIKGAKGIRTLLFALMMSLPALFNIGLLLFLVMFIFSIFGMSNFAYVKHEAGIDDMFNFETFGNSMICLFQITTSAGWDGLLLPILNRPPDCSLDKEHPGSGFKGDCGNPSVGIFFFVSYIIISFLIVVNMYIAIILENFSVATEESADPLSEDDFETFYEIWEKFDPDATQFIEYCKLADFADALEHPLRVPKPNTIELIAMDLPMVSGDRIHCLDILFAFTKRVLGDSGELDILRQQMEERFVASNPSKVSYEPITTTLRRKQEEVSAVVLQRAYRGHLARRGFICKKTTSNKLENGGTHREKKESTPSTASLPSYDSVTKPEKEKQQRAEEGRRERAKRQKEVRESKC
T3 sequence (Q99250 whole entry): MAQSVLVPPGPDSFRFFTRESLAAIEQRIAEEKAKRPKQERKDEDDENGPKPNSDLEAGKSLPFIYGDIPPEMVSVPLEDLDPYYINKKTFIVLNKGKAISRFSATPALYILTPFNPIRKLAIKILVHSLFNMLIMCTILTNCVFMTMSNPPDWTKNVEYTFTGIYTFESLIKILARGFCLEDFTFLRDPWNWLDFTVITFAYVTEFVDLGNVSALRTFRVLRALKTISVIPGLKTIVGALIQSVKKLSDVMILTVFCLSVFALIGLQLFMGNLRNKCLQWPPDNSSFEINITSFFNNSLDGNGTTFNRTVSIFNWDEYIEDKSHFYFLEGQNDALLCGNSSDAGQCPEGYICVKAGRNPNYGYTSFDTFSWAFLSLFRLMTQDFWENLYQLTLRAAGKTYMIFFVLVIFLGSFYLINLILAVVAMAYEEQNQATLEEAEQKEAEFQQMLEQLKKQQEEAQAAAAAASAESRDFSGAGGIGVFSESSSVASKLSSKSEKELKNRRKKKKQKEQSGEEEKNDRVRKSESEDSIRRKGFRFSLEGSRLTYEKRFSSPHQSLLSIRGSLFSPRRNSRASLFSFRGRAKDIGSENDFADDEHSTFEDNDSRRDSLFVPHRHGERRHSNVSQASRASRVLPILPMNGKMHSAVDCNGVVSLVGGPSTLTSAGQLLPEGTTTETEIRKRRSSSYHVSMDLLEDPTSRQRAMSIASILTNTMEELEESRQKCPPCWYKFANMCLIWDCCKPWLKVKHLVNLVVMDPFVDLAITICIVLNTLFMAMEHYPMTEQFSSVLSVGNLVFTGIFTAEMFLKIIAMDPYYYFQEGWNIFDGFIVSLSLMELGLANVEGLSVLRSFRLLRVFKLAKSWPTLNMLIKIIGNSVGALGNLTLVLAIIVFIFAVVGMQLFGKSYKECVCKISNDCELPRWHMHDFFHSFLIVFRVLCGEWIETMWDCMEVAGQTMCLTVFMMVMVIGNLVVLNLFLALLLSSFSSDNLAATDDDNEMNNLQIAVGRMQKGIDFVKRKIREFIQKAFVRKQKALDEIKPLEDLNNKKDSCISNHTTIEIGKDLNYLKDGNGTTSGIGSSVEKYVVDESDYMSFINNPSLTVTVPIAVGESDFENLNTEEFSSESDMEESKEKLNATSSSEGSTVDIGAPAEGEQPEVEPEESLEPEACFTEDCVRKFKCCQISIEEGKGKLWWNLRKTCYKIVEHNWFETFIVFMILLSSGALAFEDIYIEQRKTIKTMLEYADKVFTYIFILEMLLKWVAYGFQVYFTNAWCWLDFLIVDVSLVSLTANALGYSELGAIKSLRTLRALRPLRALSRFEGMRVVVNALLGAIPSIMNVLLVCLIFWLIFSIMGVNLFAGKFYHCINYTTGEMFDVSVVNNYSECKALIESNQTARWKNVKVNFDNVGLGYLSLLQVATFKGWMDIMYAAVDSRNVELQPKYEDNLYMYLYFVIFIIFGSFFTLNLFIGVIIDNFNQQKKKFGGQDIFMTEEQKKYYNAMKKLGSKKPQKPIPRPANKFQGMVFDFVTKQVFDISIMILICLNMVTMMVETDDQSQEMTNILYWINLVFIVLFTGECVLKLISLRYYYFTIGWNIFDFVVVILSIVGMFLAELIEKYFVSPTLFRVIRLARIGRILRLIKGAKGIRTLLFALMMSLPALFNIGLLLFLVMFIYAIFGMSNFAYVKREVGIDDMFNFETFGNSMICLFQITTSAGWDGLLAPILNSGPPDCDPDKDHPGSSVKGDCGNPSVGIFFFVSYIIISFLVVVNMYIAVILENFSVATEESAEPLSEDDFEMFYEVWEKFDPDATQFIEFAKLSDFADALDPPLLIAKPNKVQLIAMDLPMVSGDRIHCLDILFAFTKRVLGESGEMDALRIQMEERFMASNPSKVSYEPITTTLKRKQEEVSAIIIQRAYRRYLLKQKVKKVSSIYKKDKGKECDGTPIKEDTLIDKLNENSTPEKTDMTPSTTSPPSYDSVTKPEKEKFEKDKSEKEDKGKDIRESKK

Compound | Inhibitory Effects (%) on BTX-induced VSP signal (screening) [1] | Maximum of Inhibition of BTX-evoked VSP signal [1] | IC50 [1] | Effect on Na+ currents elicited by hNaV1.3 [2] | Change in V1/2 of activation and inactivation vs control [2] | Effect on Na+ currents elicited by hNaV1.6 [3] | Change in V1/2 of activation and inactivation vs control [3] | Effect on Na+ currents elicited by hNaV1.2 [4] | Change in V1/2 of activation and inactivation vs control [4] | Inhibition of BTX-induced [Na+]i elevation (ANG-2 signal) [5] | Effect on VSP fluorescence emission ratio induced by BTX [1] | IC50 of TTX on VSP signal ratio induced by BTX [1] | Inhibition of BTX-induced ANG-2 fluorescence ratio [5]
COc1ccc2cc1Oc1ccc(cc1)C[C@H]1c3cc(c(OC)cc3CCN1C)Oc1c(OC)c(OC)cc3c1[C@H](C2)N(C)CC3 [IA50, tetrandine] | 78.3% | – | – | – | – | – | – | – | – | – | – | – | –
COc1ccc2cc1-c1cc(ccc1O)C[C@H]1c3cc4c(cc3CCN1C)Oc1c(OC)cc3c(c1O4)[C@H](C2)N(C)CC3 [IA31, tiliacorinine] | 92.8% | – | – | – | – | – | – | – | – | – | – | – | –
protopine [IA69] | 99.9% | 64.67 ± 5.50% | 3.97 ± 0.1 µM | no effects | ns | no effects | ns | no effects | ns | no significant inhibitory effects | – | – | –
NC1=N[C@H](O)[C@H]2[C@H]3O[C@]4(O)O[C@@H]([C@@H](O)[C@@]2(N1)[C@@H]4O)[C@]3(O)CO [TTX, tetrodotoxin, reference compound] | – | – | – | – | – | – | – | – | – | – | fully abolished | 8.58 ± 1.67 nM | 92 ± 5%
thalmiculine [IA49] | 91.1% | 31.07 ± 4.04% | 0.38 ± 0.19 µM | no effects | ns | no effects | ns | no effects | ns | no significant inhibitory effects | – | – | –
